Patent US8367659B2, “Oxazinyl isoflavonoid compounds, medicaments and use” (Marshall Edwards, Inc., priority 2007, dated 2013)
Read-outs that look alike come from different tables or passages of the source.

Assays:
[1] = system: IL-6; assay: IL-6 synthesis by mouse splenocytes (ELISA); type: cell-based, Skh-1:HR 1 (hairless) mice; details: 10 μM; 3 days
Protocol: (§1) Male Skh-1:HR 1 (hairless) mice, approximately six weeks old were killed by cervical dislocation. Single cell suspensions were made from the spleen and erythrocytes were lysed in buffer (0.14 M NH4Cl, 17 mM Tris, pH 7.2). The remaining splenocytes were cultured in RPMI-1640 (Gibco) supplemented with 10% (v:v) FBS, 200 mM L-glutamine, penicillin/streptomycin and […] 2-mercaptoethanol. Splenocytes were added to quadruplicate wells containing either concanavalin A (ConA, Sigma-Aldrich—0.4 μg/well), LPS (Sigma-Aldrich—1 μg/well) or no mitogen, as well 10 μM of test compound in DMSO. Samples were analysed after 3 days incubation at 37° C. in 5% CO2 in air. Methylthiazoletetrazolium (MTT) is bioreduced by viable cells into a coloured formazan product that is soluble in DMSO. Thus the quantity of formazan product is directly proportional to the number of living cells in culture, and can be measured using a spectrophotometer at 570 nm. MTT was added to each well, incubated for a further 4 hrs and then colour developed with 0.04 N HCl in isopropanol. Culture supernatants were stored after collection at −80° C. and analysed by ELISA (BD Biosciences) for IFN-γ (a Th-1 cytokine) and for T cells alone, IL-6 (a Th-2 cytokine).

[2] = system: low density lipoprotein (LDL); assay: Inhibition of Cu2+-induced oxidation of LDL (lipid peroxides, FOX assay); type: biochemical
Protocol: Blood was collected by venipuncture and plasma separated by centrifugation. LDL was then isolated from plasma using a 4-step sodium chloride density gradient and ultracentrifuged at 200,000 g for 20 hours at 4° C. The collect LDL was purified by passage through gel filtration PD10 column to remove excess salt and EDTA, and stored in the dark at 4° C. to prevent auto-oxidation and used with two weeks of isolation. The LDL cholesterol content was measure using a standard enzymatic method and protein concentration determined by the Lowry method using BSA as the standard.
[…] Oxidation reactions were initiated by the addition of freshly prepared Cu^2+ solution, such that the final concentration of CuSO4 was 5 μM. […] The extent of lipoprotein oxidation was determined by measuring the formation of lipid-peroxides on aliquots removed every 30-minute over a 3-hour period. Peroxides were determined at each time point by the ferrous oxidation-xylenol orange (FOX) assay using standard hydrogen peroxide curve (5 to 200 μM). Compounds (1) and (2) were examined in at least two separate experiments performed on separate days.

[3] = system: TNFα synthesis in human peripheral blood monocytes; assay: Synthesis of TNFα by human monocytes stimulated with LPS; type: cell-based; details: FIGS. 1a, 1b
Protocol: Human peripheral blood monocytes were isolated from buffy coats by lyrnpboprep gradient separation of mononuclear cells followed by counter-current centrifugal elutriation (Demasi et al. 2000). Test compounds were dissolved in DMSO and added to fresh monocytes to achieve concentrations of 0, 10 and 100 μM. After 30 min, LPS was added to achieve a final concentration of 200 ng/mL. After 1 h, supernatants were removed and TNFα measured by ELISA previously described (Demasi et al. 2003). ANOVA followed by Newman-Keuls multiple comparisons test was used to examine differences between doses and the control values.

[4] = system: B cells; assay: B cell proliferation (LPS-stimulated mouse splenocytes, MTT); type: cell-based, Skh-1:HR 1 (hairless) mice; details: 10 μM, 3 days
Protocol: as §1

[5] = system: Rabbit kidney (RK-13) cells; assay: Toxicity to normal cells, rabbit kidney (RK-13) cells; type: cell-based; details: Oryctolagus cuniculus
Protocol: IC50 values were determined for each cell line. Cells were seeded in 96-well plates at an appropriate cell density as determined from growth kinetics analysis and cultured for 5 days in the absence and presence of the test compounds. Cell proliferation was assessed after the addition of 20 μl of 3-4,5 dimethylthiazol-2,5-diphenyl tetrazolium bromide (MTT, 2.5 mg/ml in PBS, Sigma) for 3-4 hrs at 37° C. according to manufacturer's instructions. IC50 values were calculated from semi-log plots of % of control proliferation on the y-axis against log dose on the x-axis.
The neonatal foreskin fibroblasts (NFF) were a gift from Dr. Peter Parsons (Queensland Institute of Medical Research). Rabbit kidney (RK-13) cells were obtained from Miller Whalley (Macquarie University). Both cell lines were cultured in RPMI supplemented with 10% FCS(CSL, Australia), penicillin (100 U/ml), streptomycin ([…]), L-glutamine (2 mM) and sodium bicarbonate (1.2 g/L), and cultured at 37° C. in a humidified atmosphere of 5% CO2. IC50 values were determined as described above.

[6] = system: caspase-3/7 activity in A7r5 rat aortic smooth muscle cells; assay: Caspase-3/7 activity (apoptosis) in A7r5 rat aortic smooth muscle cells; type: cell-based; details: 10, 50 and 100 μM; FIG. 14
From the text: Activation of the caspase cascade is an integral event in the apoptotic pathway. Caspase-3 is one of the important “executioner” caspase enzymes, triggering the cleavage of numerous proteins that lead to the ordered breakdown of cells. The detection of caspase-3 activation is frequently used as a positive marker for apoptosis. A homogeneous luminescent caspase-3/7 assay, the Caspase-Glo™ 3/7 Assay (Promega Corp.) was used to provide an extremely sensitive measure of caspase activation. VSMC were incubated with different concentrations (0 [vehicle alone], 10, 50 and 100 μM) of test compounds. The assay used a proluminescent substrate containing the DEVD sequence recognized by caspase-3 and -7. The caspase-Glo™ 3/7 Reagent produced luminescence that is directly proportional to the amount of caspase-3/7 activity. The luminescence is linear over four orders of magnitude of caspase concentration and over a broad range of cell densities.

SMILES: CC(c1ccccc1)N1COc2cc3c(cc2C1)C=C(c1ccc(O)cc1)CO3 (stereo not shown) [Compound 2, 4-(3-(1-Phenylethyl)-2,3,4,8-tetrahydrochromeno[6,7-e][1,3]oxazin-7-yl)phenol]
- synthesis of IL-6 into the supernatant [1]: concomitant reduction
- EC50 ([2]; LDL 0.1 mg/mL, CuSO4 5 μM, read-out: EC50, concentration at which 50% of the LDL oxidation was inhibited): 0.63 µM
- lipid peroxide formation ([2]; LDL 0.1 mg/ml + compound 0.1 μM + Cu^++ 5 μM, 0 min): 10.5 ± 2.93
- lipid peroxide formation ([2]; LDL 0.1 mg/ml + compound 0.1 μM + Cu^++ 5 μM, 30 min): 13.9 ± 2.51
- lipid peroxide formation ([2]; LDL 0.1 mg/ml + compound 0.1 μM + Cu^++ 5 μM, 60 min): 23.7 ± 4.71
- lipid peroxide formation ([2]; LDL 0.1 mg/ml + compound 0.1 μM + Cu^++ 5 μM, 90 min): 75.1 ± 8.43
- lipid peroxide formation ([2]; LDL 0.1 mg/ml + compound 0.1 μM + Cu^++ 5 μM, 120 min): 138.5 ± 2.94
- lipid peroxide formation ([2]; LDL 0.1 mg/ml + compound 0.1 μM + Cu^++ 5 μM, 180 min): 173.7 ± 34.4
- lipid peroxide formation ([2]; LDL 0.1 mg/ml + compound 1.0 μM + Cu^++ 5 μM, 0 min): 10.22 ± 2.9
- lipid peroxide formation ([2]; LDL 0.1 mg/ml + compound 1.0 μM + Cu^++ 5 μM, 30 min): 11.62 ± 2.4
- lipid peroxide formation ([2]; LDL 0.1 mg/ml + compound 1.0 μM + Cu^++ 5 μM, 60 min): 12.08 ± 3.2
- lipid peroxide formation ([2]; LDL 0.1 mg/ml + compound 1.0 μM + Cu^++ 5 μM, 90 min): 18.25 ± 3.2
- lipid peroxide formation ([2]; LDL 0.1 mg/ml + compound 1.0 μM + Cu^++ 5 μM, 120 min): 35.12 ± 0.4
- lipid peroxide formation ([2]; LDL 0.1 mg/ml + compound 1.0 μM + Cu^++ 5 μM, 180 min): 133.1 ± 18.3
- lipid peroxide formation ([2]; LDL 0.1 mg/ml + compound 10 μM + Cu^++ 5 μM, 0 min): 10.20 ± 2.6
- lipid peroxide formation ([2]; LDL 0.1 mg/ml + compound 10 μM + Cu^++ 5 μM, 30 min): 15.99 ± 0.1
- lipid peroxide formation ([2]; LDL 0.1 mg/ml + compound 10 μM + Cu^++ 5 μM, 60 min): 18.26 ± 0.8
- lipid peroxide formation ([2]; LDL 0.1 mg/ml + compound 10 μM + Cu^++ 5 μM, 90 min): 20.64 ± 1.3
- lipid peroxide formation ([2]; LDL 0.1 mg/ml + compound 10 μM + Cu^++ 5 μM, 120 min): 23.68 ± 1.2
- lipid peroxide formation ([2]; LDL 0.1 mg/ml + compound 10 μM + Cu^++ 5 μM, 180 min): 24.6 ± 21.9
- lipid peroxide formation ([2]; LDL 0.1 mg/ml + compound 100 μM + Cu^++ 5 μM, 0 min): 12.09 ± 2.8
- lipid peroxide formation ([2]; LDL 0.1 mg/ml + compound 100 μM + Cu^++ 5 μM, 30 min): 15.93 ± 5.4
- lipid peroxide formation ([2]; LDL 0.1 mg/ml + compound 100 μM + Cu^++ 5 μM, 60 min): 19.40 ± 7.8
- lipid peroxide formation ([2]; LDL 0.1 mg/ml + compound 100 μM + Cu^++ 5 μM, 90 min): 23.27 ± 8.7
- lipid peroxide formation ([2]; LDL 0.1 mg/ml + compound 100 μM + Cu^++ 5 μM, 120 min): 28.76 ± 5.0
- lipid peroxide formation ([2]; LDL 0.1 mg/ml + compound 100 μM + Cu^++ 5 μM, 180 min): 28.6 ± 12.9
- lipid peroxide formation ([2]; compound 100 μM + Cu^++ 5 μM, without LDL, 0 min): 7.69 ± 3.8
- lipid peroxide formation ([2]; compound 100 μM + Cu^++ 5 μM, without LDL, 30 min): 14.97 ± 0.4
- lipid peroxide formation ([2]; compound 100 μM + Cu^++ 5 μM, without LDL, 60 min): 19.19 ± 2.1
- lipid peroxide formation ([2]; compound 100 μM + Cu^++ 5 μM, without LDL, 90 min): 24.30 ± 4.3
- lipid peroxide formation ([2]; compound 100 μM + Cu^++ 5 μM, without LDL, 120 min): 28.31 ± 2.8
- lipid peroxide formation ([2]; compound 100 μM + Cu^++ 5 μM, without LDL, 180 min): 33.20 ± 6.7
- effect on synthesis of TNFα [3]: reduce the synthesis of TNFα
- effect on B cells [4]: markedly and significantly immunosuppressive
- IC50 ([5]; normal, non-transformed cells, read-out: IC50 μM, RK Rabbit Kidney): 53.3 µM
- IC50 ([5]; read-out: toxicity to RK-13 cells (IC50)): > 30 µM

SMILES: Oc1cccc(C2=Cc3ccc(O)cc3OC2)c1 [Compound 37-DHE, 3′,7-dihydroxy-isoflav-3-ene, reference compound]
- induction of caspase-3/7 activity, apoptosis [6]: no activity
